Here are results for two molecules from patent US20250213701A1, “MEDICAMENT FOR TREATING HUMAN TUMOR BASED ON ERF3A-TARGETING PROTEOLYSIS MECHANISM” (SUZHOU DEGEN BIO-MEDICAL CO., LTD., priority 2022, published 2025).

Structures are written as SMILES.

Holding throughout (type): cell-based
The target of experiment [1] is T1, SRD5A1 (Homo sapiens, UniProt P18405).
T1 construct: The downregulation of SRD5A1, SRD5A3, AR, ARV7, GSPT1 proteins in 22Rv1 cells by C59; endogenous in cells; host or cells: 22Rv1
In words: Western blot assay in 22Rv1 cells: SRD5A1. The conditions noted are these: different concentrations at 24 h, and 3 nM at different time points (FIGS. 7 and 8). The text has this: Example 84: Western Blot Assay of Compound C59 in 22Rv1, PC-3, and HepG2 Cells
(1) Materials: 22Rv1, PC-3, and HepG2 cell, anti-SRD5A1 antibody (ab167606), anti-SRD5A2 antibody (ab124877), anti-SRD5A3 antibody (PA5-107029), anti-androgen receptor (AR) antibody (CST, No. 5153), anti-GSPT1 antibody (Abcam, ab234433), anti-GADPH antibody (CST, No. 5174), anti-c-Myc antibody (CST, No. 8583), anti-α-tublin antibody (CST, No. 2125), anti-rabbit IgG, HRP-linked antibody (CST, No. 7074), electrophoresis device and membrane transfer device (LIUYI, BEIJING; DYCZ-24DN)
Cell seeding: 22Rv1 (Cell Bank of the Chinese Academy of Sciences, TCHu100), PC-3 (Cell Bank of the Chinese Academy of Sciences, SCSP-532) and HepG2 cells (Cell Bank of the Chinese Academy of Sciences, TCHu72) were subcultured and trypsinized to prepare 6×10^5 cells/mL suspensions, seeded on 6-well plates (3 mL/well), and cultured overnight in a cell incubator at 5% CO2 and 37° C. […]
Protein quantification: The protein was quantified using a BCA protein quantification kit. […]
Western immunoblot assay (or Western blot, WB): SDS-PAGE gel at a proper concentration was prepared according to the molecular weight of the target protein: for example, the concentration of the separation gel was 8% and the concentration of the stacking gel was 5%. The loading volume was adjusted according to the protein quantification results. […]

The subject of experiment [2] is DU 145 cells. In words: Anti-proliferative toxicity of C63 in tumor cell lines (CCK8): DU 145. The conditions noted are these: Homo sapiens, 72 h, 3 days, read-out: Inhibition rate. The protocol:
(§1) Example 83: Detection of Anti-Proliferative Toxicity of C63 in Some Tumor Cell Lines
DU 145 cells (purchased from the Cell Bank of the Chinese Academy of Sciences, Cat. No. SCSP-5024) were subcultured in a culture medium (MVEM medium+[…] penicillin-streptomycin dual-antibiotic solution+10% fetal bovine serum) in an incubator at 5% carbon dioxide and 37° C.
DU 145 cells were seeded at 5000 cells/well (90 μL) on a 96-well plate and cultured for 24 h.
(§2) 10 mM compound stock solutions were prepared in DMSO.
(§3) The compound stock solution was diluted with DMSO to give DMSO solutions 1-9 at concentrations of 0 μM, 2500 μM, 500 μM, 100 μM, 20 μM, 4 μM, 0.8 μM, 0.16 μM, and 0.032 μM.
(§4) 2 μL of each of solutions 1-9 was added to 98 μL of the medium to give mixed solutions 11-19 of the compound and the medium.
(§5) 10 μL of each of solutions 11-19 was added to the above cell seed solution to give a total volume of 100 μL (90 μL+10 μL).
(§6) The concentrations of the compound in the wells were 0 μM, 5.0 μM, 1.0 μM, 0.2 μM, 0.04 μM, 0.008 μM, 0.0016 μM, 0.00032 μM, and 0.000064 μM. All concentrations were in triplicate.
(§7) After the above-treated cells were cultured for 3 days, 10 μL of the CCK8 solution (DOJINDO, Cat. No. PF725) was added to each well. The plate was incubated in an incubator at 37° C. for 1-4 h and then detected on a microplate reader for the reading at 450 nm.

The subject of experiment [3] is Hep G2 cells. In words: Anti-proliferative toxicity of C63 in tumor cell lines (CCK8): Hep G2. The note with it: Homo sapiens, HepG2, 72 h, 3 days, read-out: Inhibition rate. The protocol:
as §1
HepG2 cells (purchased from the Cell Bank of the Chinese Academy of Sciences, Cat. No. TCHu72) were subcultured in a culture medium (MEM medium+1% penicillin-streptomycin dual-antibiotic solution+10% fetal bovine serum) in an incubator at 5% carbon dioxide and 37° C.
Hep G2 cells were seeded at 2000 cells/well (90 μL) on a 96-well plate and cultured for 24 h.
as §2, §3, §4, §5, §6, §7

The subject of experiment [4] is U251 cells. In words: Anti-proliferative toxicity of C63 in tumor cell lines (CCK8): U251. The conditions noted are these: Homo sapiens, U-251, 72 h, 3 days, read-out: Inhibition rate. The protocol: as §1
U251 cells (purchased from the Cell Bank of the Chinese Academy of Sciences, Cat. No. TCHu58) were subcultured in a culture medium (DMEM medium+1% penicillin-streptomycin dual-antibiotic solution+10% fetal bovine serum) in an incubator at 5% carbon dioxide and 37° C.
U251 cells were seeded at 2000 cells/well (90 μL) on a 96-well plate and cultured for 24 h.
as §2, §3, §4, §5, §6, §7

T1 sequence (P18405 whole entry): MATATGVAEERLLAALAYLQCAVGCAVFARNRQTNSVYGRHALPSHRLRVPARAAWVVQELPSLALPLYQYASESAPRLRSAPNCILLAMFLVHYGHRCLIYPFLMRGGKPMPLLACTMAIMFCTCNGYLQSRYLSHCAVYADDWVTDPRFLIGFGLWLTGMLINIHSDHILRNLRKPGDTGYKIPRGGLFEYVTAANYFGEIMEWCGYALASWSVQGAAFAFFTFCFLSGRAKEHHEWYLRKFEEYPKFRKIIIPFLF

As for `C[C@]12C=CC(=O)N[C@@H]1CC[C@@H]1[C@@H]2CC[C@]2(C)[C@@H](C(=O)Nc3cccc(N[C@@H]4CCC[C@@H](Nc5cccc6c5C(=O)N(C5CCC(=O)NC5=O)C6=O)C4)c3)CC[C@@H]12` (stereo partly drawn) [C59, N-(3-(N—(N-(4-(2-(3-(2,6-dioxopiperidine))-isoindole-1,3-dione))-1R,3R-cyclohexanediamine))phenyl)-3-oxo-4-aza-5α-androst-1-ene-17β-carboxamide], in experiment [1], the “downregulation of SRD5A1 protein (Western blot)” value was “downregulation”.

On to `C[C@]12C=CC(=O)N[C@@H]1CC[C@@H]1[C@@H]2CC[C@]2(C)[C@@H](C(=O)Nc3cccc(N[C@@H]4CCC[C@@H](Nc5cccc6c5C(=O)N([C@H]5CCC(=O)NC5=O)C6=O)C4)c3)CC[C@@H]12` [C63, N-(3-(N—(N-(4-(2-(3S-(2,6-dioxopiperidine))-isoindole-1,3-dione))-1R,3R-cyclohexanediamine))phenyl)-3-oxo-4-aza-5α-androst-1-ene-17β-carboxamide], for which the inhibition at 64 pM came out at 22.1% in experiment [2] (0.000064 μM), 1.97% in experiment [3] (0.000064 μM) and 22% in experiment [4] (0.000064 μM). Also, the inhibition at 0.00032 µM in experiment [2] (0.000320 μM) was 20.5%; in experiment [3] (0.000320 μM), 14.1%; in experiment [4] (0.000320 μM), 21.7%. Besides, the inhibition at 0.0016 µM in experiment [2] (0.001600 μM) came to 22.7%; in experiment [3] (0.001600 μM), 66.9%; in experiment [4] (0.001600 μM), 53.4%. In addition, the inhibition at 0.008 µM in experiment [2] (0.008000 μM) stood at 48.4%; in experiment [3] (0.008000 μM), 79.3%; in experiment [4] (0.008000 μM), 67.8%. For the same molecule, the inhibition at 0.04 µM came out at 60.9% in experiment [2] (0.040000 μM), 87.1% in experiment [3] (0.040000 μM) and 69% in experiment [4] (0.040000 μM). Further, the inhibition at 0.2 µM in experiment [2] (0.200000 μM) amounted to 74.3%; in experiment [3] (0.200000 μM), 87.3%; in experiment [4] (0.200000 μM), 71.7%. Further, the inhibition at 1 µM in experiment [2] (1.000000 μM) worked out at 81.9%; in experiment [3] (1.000000 μM), 85.7%; in experiment [4] (1.000000 μM), 72.2%. The inhibition at 5 µM in experiment [2] (5.000000 μM) turned out to be 82.4%; in experiment [3] (5.000000 μM), 81.1%; in experiment [4] (5.000000 μM), 72.2%.
